Results taken from patent US7084141B2, “Inhibitors of macrophase migration inhibitory factor and methods for identifying the same” (Avanir Pharmaceuticals, priority 2001, dated 2006).

Assays:
[1] = target: T1, MIF produced by THP-1 cells (Homo sapiens, UniProt P14174); experiment: High throughput screening ELISA for MIF inhibitors (THP-1 supernatant / pre-conditioned media incubated with inhibitor); format: binding; conditions: absence of cells, 30 minutes at 37° C.
T1 construct: a test cell may express the MIF naturally (e.g., THP-1 cells); endogenous in cells; host or cells: THP-1 cells stimulated with LPS
T1 sequence (P14174 2-115 limits assumed): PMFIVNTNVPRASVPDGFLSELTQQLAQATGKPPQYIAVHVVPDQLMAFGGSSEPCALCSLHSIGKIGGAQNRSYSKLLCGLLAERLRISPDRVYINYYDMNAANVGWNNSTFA
Method: Alternatively, ELISA may be preferred to detect and quantify the amount of MIF in cell supernatants. ELISA is preferred for detection in high throughput screening. Briefly, 96-well plates are coated with an anti-MIF antibody or anti-tag antibody, washed, and blocked with 2% BSA. Cell supernatant is then added to the wells. Following incubation and washing, a second antibody (e.g., to MIF) is added. The second antibody may be coupled to a label or detecting reagent, such as an enzyme or to biotin. Following further incubation, a developing reagent is added and the amount of MIF determined using an ELISA plate reader. […]
In the previous experiment (FIG. 3), the ability of compound 7e to modulate antibody binding to MIF protein was analyzed in the presence of LPS-stimulated THP1 cells. […] Six hours later, the conditioned media was removed, clarified of cell debris and the amount of MIF determined to be 22 ng/ml. […] The level of detectable MIF was then determined by ELISA using the monoclonal anti-MIF antibody for detection. […]
The high throughput screening assay for MIF inhibitors is performed in a 96-well format using MIF produced by THP-1 cells and is performed as follows. […] The amount of MIF is calculated by interpolation from an MIF standard curve.

serum IL-1β = experiment: Serum IL-1β after LPS challenge in mice (ELISA); format: in vivo, mouse; conditions: 20 mg/kg compound, LPS 5 mg/kg, four hours
Method: Ten 10-week-old (20±2 gram) female BALB/c mice (Charles River Laboratories, Kingston, N.Y.) were housed in a group of 5 per cage with free access to food and water and were acclimatized for at least one week prior to experimentation. On the day of experiment, mice were weighed and randomly distributed into group of 10 animals of equal mean body weight. Mice were injected i.p. with 200 μL of formulated compound 7e or buffer alone immediately before the i.p. injection of LPS (Escherichia coli 0111:B4, 10 mg/kg or 5 mg/kg body weight) and β-D-galactosamine (50 mg/kg body weight). […] Mouse serum Il-1β and TNF-α were measured by ELISA using a “mouse IL 1β immunoassay or mouse TNF-α immunoassay” kits (R&D System Minneapolis, Minn.) following manufacturer's direction. Serum MIF concentrations in mouse serum were quantified by a sandwich ELISA (ChemiKine MIF Kit, Chemicon, San Diego, Calif.). Samples were analyzed in duplicate, and results were averaged.
An initial control experiment was conducted to determine the base line levels of endogenous MIF in the murine model system (female Balb/c mice), and further to determine the rate and extent of increase in endogenous MIF following treatment with LPS (10 mg/kg). […] The level of MIF in serum was measured by HPLC as described above at 0, 2, 5 and 6 hours following LPS/galactosamine treatment. […]

In the case of Cn1c(=O)c([N+](=O)[O-])c(N2CCN(C(=O)c3ccco3)CC2)c2ccccc21 [compound 7e], the “MIF specific ELISA signal in pre-conditioned media” value [1] is reported as “rapid loss of MIF specific ELISA signal” and the “serum IL-1β level” value (serum IL-1β) is reported as “reductions”.
